Test results from paper PMC9104013, “Role of Polyamine-Induced Dimerization of Antizyme in Its Cellular Functions” (International Journal of Molecular Sciences, 2022).
Read-outs that look alike come from different tables or passages of the source.

How the values were obtained:
[1] = system: spermidine/spermine-N^1-acetyltransferase (SSAT); design: method as in PMID 21639123; conditions: cited from earlier work
DU145 cells = assay: Intracellular polyamine and analogue concentrations in DU145 cells (HPLC); type: cell-based; conditions: 4 h, 100 µM analogue, 1 mM AG
Protocol: The DU145 cell line was obtained from American Type Culture Collection, Manassas, VA, USA. OAZ1-overexpressing DU145 cells were generated as described earlier. The cells were cultured in humidified atmosphere at +37 °C, 10% CO2 in high-glucose Dulbecco’s Modified Eagle’s Medium supplemented with 10% heat-inactivated fetal bovine serum, 2 mM L-glutamine, and 50 μg/mL gentamycin. The cells were lysed in a buffer containing 50 mM potassium phosphate, pH 7.2, 0.1 mM EDTA, 0.1% Triton X-100, 1 mM dithiothreitol (DTT), and Complete EDTA-free protease inhibitor (Roche Diagnostics, Basel, Switzerland). Aliquots of the lysate were taken for polyamine measurement, and the rest was centrifuged at 13,000 rpm for 20 min at +4 °C. The supernatant was used for enzyme assays and Western blotting.
Polyamines were measured with HPLC according to the published method. Acid-precipitated pellets were dissolved to 0.1 M NaOH, and the amount of DNA was measured using the PicoGreen reagent (Invitrogen) according to manufacturer’s instructions using dilutions of calf thymus DNA (Sigma-Aldrich) as standard curve. Protein concentrations were measured using Bio-Rad protein kit with dilutions of bovine serum albumin (Bio-Rad, Hercules, CA, USA) as standards. ODC activities were measured from the cytosolic fractions as described earlier. For immunoblotting of OAZ1, 20–50 μg of total protein was separated on a 15% SDS-polyacrylamide gel, transferred to a membrane (Immobilon FL, Millipore, Burlington, MA, USA), and immunoblotted with rabbit anti-OAZ1 antibody (a kind gift from Prof. Olli Jänne, University of Helsinki, Finland) and rabbit antiactin (Santa Cruz Biotechnology, cat no sc-1616, used at 1:1000 dilution in 5% nonfat dry milk/PBS-Tween). The secondary antibody used was goat antirabbit (Santa Cruz Biotechnology, Dallas, TX, USA, cat no sc-2004, used at 1:10,000 dilution).

[2] = system: 72-mer-2'-O-Me-oligoribonucleotide L-OM, containing the +1 frameshift site, hairpin and pseudoknot of the mOAZ1 mRNA; assay: RNA melting point (UV thermal denaturation); type: binding, mouse; conditions: for Tm: 1 μM L-OM, 50 mM Tris-HCl pH 7.5, 50 mM NaCl
Protocol: UV thermal denaturation data were obtained on a Hitachi U-2900 spectrophotometer equipped with a Peltier temperature controller. The concentration of model 72-mer-2′-O-Me-oligoribonucleotide L-OM, containing the +1 frameshift site, hairpin, and pseudoknot of the mOAZ1 mRNA was 1 µM. Samples were dissolved in 50 mM Tris-HCl, pH 7.5 and 50 mM NaCl buffer. Concentration of oligonucleotide was determined after quantitating the samples by UV absorbance at λ = 260 nm. Samples were heated to 90 °C for 10 min then cooled slowly to room temperature and stored at 5 °C for at least 18 h before the measurements were performed. Denaturation curves were acquired at 260 nm for the duplexes at a rate of 0.5 °C/min, within a range of 30–90 °C. The Tm values were determined from polynomial fitting of the observed curves and taken as the temperatures corresponding to half-dissociation of complex. The first derivative of absorption with respect to temperature, dA/dT, of the melting curve was computer-generated by the GraphPad Prism 7.0 software and used for the determining of Tm.

[3] = system: spermine synthase (SpmSy); design: method as in PMID 21639123; conditions: cited from earlier work
[4] = molecular target: T1, recombinant mOAZ1 protein (Mus musculus, UniProt P54369); assay: Electrophoresis of mOAZ1-Polyamine complex (0.01% SDS in running buffer); type: binding; conditions: 200 μM polyamine, 30 min, 20 °C, pH 7.5
T1 construct: Full-length mOAZ1 protein was successfully produced in E. coli; made in house; host or cells: Escherichia coli Rosetta (DE3)
Protocol: The recombinant mOAZ1 protein (1 μg/band) was incubated with 200 μM of a polyamine at room temperature for 30 min. Then the sample was quenched with a loading buffer (200 mM Tris-HCl, pH 6.8, 0.01% bromophenol blue, and 40% glycerol) and applied onto 12% polyacrylamide gel lacking SDS. Electrophoresis was carried out in a running buffer with decreased SDS concentration (25 mM Tris base; 250 mM glycine; and 0.01% SDS) at 70 V. The gel was stained with Coomassie R-250.

mouse OAZ1 (mOAZ1) = molecular target: T2, mouse OAZ1 (mOAZ1) (Mus musculus, UniProt P54369); assay: Isothermal titration calorimetry of polyamines binding to mOAZ1; conditions: for ΔH (enthalpy variation) / Ka (affinity constant): pH 7.5; for ΔH (enthalpy variation): SD did not exceed ±20%; for Ka (affinity constant): SD did not exceed ±25%; for TΔS (entropy variation): calculated from TΔS = ΔH + RTlnKa; for Binding to mOAZ1: under the conditions used
T2 construct: Full-length mOAZ1 protein was successfully produced in E. coli; made in house; host or cells: Escherichia coli Rosetta (DE3)
Protocol: For the precise isothermal titration calorimetry (ITC) experiments only freshly purified samples turned out to be suitable. The thermodynamic parameters of polyamines binding to OAZ1 were measured using a MicroCal iTC200 instrument (GE Healthcare, Chicago, IL, USA) as described elsewhere. Experiments were carried out at 31 °C in buffer containing 25 mM potassium phosphate, pH 7.5; 150 mM KCl; 25% (v/v) glycerol; 1 mM 2-mercaptoethanol; and 1 mM PMSF. Aliquots (2.5 μL) of ligands were injected into a 0.2 mL cell containing the protein solution to achieve a complete binding isotherm. Protein and ligand concentrations were 20 μM and 200 μM, respectively. The heat of dilution was measured by injection of the ligand into the buffer solution or by additional injections of ligand after saturation; the values obtained were subtracted from the heat of reaction to obtain the effective heat of binding. The resulting titration curves were fitted using the MicroCal Origin software, assuming one set of binding sites. Affinity constants (Ka) and enthalpy variations (ΔH) were determined, and the entropy variations (ΔS) were calculated from the equation: TΔS = ΔH + RTlnKa.

[5] = polyamine concentration 20 μM, without polyamine 65.5±0.6
[6] = ITC, read-out: Kd of complex with mOAZ1
[7] = calculated as 1/Ka, no binding = not detected, Kd > 50 μM not detectable, read-out: Kd (dissociation constant)

T1 sequence (P54369 whole entry): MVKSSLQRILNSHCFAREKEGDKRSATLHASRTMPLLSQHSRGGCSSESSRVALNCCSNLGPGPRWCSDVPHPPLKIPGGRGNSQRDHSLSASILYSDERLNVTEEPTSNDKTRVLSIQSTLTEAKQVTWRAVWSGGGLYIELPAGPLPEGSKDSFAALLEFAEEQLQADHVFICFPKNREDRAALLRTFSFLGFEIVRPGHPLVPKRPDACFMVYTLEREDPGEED
T2 sequence (P54369 whole entry): as above

## CC(N)CCNCCCCN (stereo not shown) [1-MeSpd]
[1]
  Substrate of SSAT: not a substrate of SSAT
DU145 cells
  Intracellular Analogue: 170 ± 9.7 pmol/µg DNA
  Intracellular N1-AcSpd: 7.1 ± 0.2 pmol/µg DNA
  Intracellular Put: 9.5 ± 0.5 pmol/µg DNA
  Intracellular Spd: 62.0 ± 3.9 pmol/µg DNA
  Intracellular Spm: 74.0 ± 7.2 pmol/µg DNA
  Spd + MeSpd: 232 pmol/µg DNA
  Spd + Spm + MeSpd: 306 pmol/µg DNA
  Total polyamines: 323 pmol/µg DNA
[2]; [5]
  Tm: 73.0±0.4 °C
[2]; polyamine concentration 50 μM
  Tm: 74.0±0.3 °C
[2]; polyamine concentration 200 μM
  Tm: 80.2±0.6 °C
[3]
  Substrate of spermine synthase (SpmSy): is a substrate of spermine synthase
[4]
  Formation of (mOAZ1)2-Polyamine complex / dimerization: dimeric and monomeric complexes
Mouse OAZ1 (mOAZ1); ITC, 31 °C
  ΔH (enthalpy variation): -2.2 kcal/mol
  Ka (affinity constant): 540000 M⁻¹
Mouse OAZ1 (mOAZ1); [6]
  Kd: ~1000 nM
Mouse OAZ1 (mOAZ1); [7]
  Kd: 1900 nM
Mouse OAZ1 (mOAZ1)
  TΔS (entropy variation): 5.8 kcal/mol

## CC(CN)CNCCCCN (stereo not shown) [2-MeSpd]
[1]
  Substrate of SSAT: substrate of both SSAT and SpmSy
DU145 cells
  Intracellular Analogue: 126 ± 14.5 pmol/µg DNA
  Intracellular N1-AcSpd: 4.9 ± 0.3 pmol/µg DNA
  Intracellular Put: 21.1 ± 0.7 pmol/µg DNA
  Intracellular Spd: 70.2 ± 2.3 pmol/µg DNA
  Intracellular Spm: 83.5 ± 6.8 pmol/µg DNA
  Spd + MeSpd: 196 pmol/µg DNA
  Spd + Spm + MeSpd: 279 pmol/µg DNA
  Total polyamines: 306 pmol/µg DNA
[2]
  Tm lower compared with Spd and the other analogues: 2–3 °C
[2]; [5]
  Tm: 70.5±0.5 °C
[2]; polyamine concentration 50 μM
  Tm: 73.4±0.4 °C
[2]; polyamine concentration 200 μM
  Tm: 77.5±0.5 °C
[3]
  Substrate of spermine synthase (SpmSy): substrate of both SSAT and SpmSy
[4]
  Formation of (mOAZ1)2-Polyamine complex / dimerization: only the band corresponding to mOAZ1 itself was observed
Mouse OAZ1 (mOAZ1); ITC, 31 °C, pH 7.5, 150 mM KCl, 25% glycerol, protein 20 μM, ligand 200 μM
  Stoichiometry mOAZ1/Polyamine: No binding ^f
Mouse OAZ1 (mOAZ1); ITC, 31 °C
  ΔH (enthalpy variation): No binding ^f
  Ka (affinity constant): No binding ^f
Mouse OAZ1 (mOAZ1); ITC
  Binding to mOAZ1: not detected
Mouse OAZ1 (mOAZ1); calculated as 1/Ka, no binding = not detected, Kd > 50 μM not detectable
  Kd (dissociation constant): No binding ^f
Mouse OAZ1 (mOAZ1)
  TΔS (entropy variation): No binding ^f

## NCCCCNCCCN [Spd, spermidine]
[2]; [5]
  Tm: 73.7±0.6 °C
[2]; polyamine concentration 50 μM
  Tm: 75.3±0.4 °C
[2]; polyamine concentration 200 μM
  Tm: 79.7±1.1 °C
[4]
  Formation of (mOAZ1)2-Polyamine complex / dimerization: induce dimerization of OAZ1
Mouse OAZ1 (mOAZ1); ITC, 31 °C
  ΔH (enthalpy variation): -3.3 kcal/mol
  Ka (affinity constant): 280000 M⁻¹
Mouse OAZ1 (mOAZ1); ITC
  Binding to mOAZ1: bound to mOAZ1
Mouse OAZ1 (mOAZ1); [6]
  Kd: ~1000 nM
Mouse OAZ1 (mOAZ1); [7]
  Kd: 3600 nM
Mouse OAZ1 (mOAZ1)
  TΔS (entropy variation): 4.2 kcal/mol

## CC(CCN)NCCCCN (stereo not shown) [3-MeSpd]
[1]
  Substrate of SSAT: not a substrate of either SSAT or SpmSy
DU145 cells
  Intracellular N1-AcSpd: 5.9 ± 1.1 pmol/µg DNA
  Intracellular Put: 11.1 ± 0.2 pmol/µg DNA
  Intracellular Spd: 65.3 ± 3.9 pmol/µg DNA
  Intracellular Spm: 78.4 ± 5.8 pmol/µg DNA
  Spd + MeSpd: 168 pmol/µg DNA
  Total polyamines: 264 pmol/µg DNA
[2]; [5]
  Tm: 71.9±0.5 °C
[2]; polyamine concentration 50 μM
  Tm: 75.2±0.4 °C
[2]; polyamine concentration 200 μM
  Tm: 79.4±0.5 °C
[3]
  Substrate of spermine synthase (SpmSy): not a substrate of either SSAT or SpmSy
[4]
  Formation of (mOAZ1)2-Polyamine complex / dimerization: dimeric and monomeric complexes
Mouse OAZ1 (mOAZ1); ITC, 31 °C
  ΔH (enthalpy variation): -1.2 kcal/mol
  Ka (affinity constant): 400000 M⁻¹
Mouse OAZ1 (mOAZ1); [6]
  Kd: ~1000 nM
Mouse OAZ1 (mOAZ1); [7]
  Kd: 2500 nM
Mouse OAZ1 (mOAZ1)
  TΔS (entropy variation): 6.6 kcal/mol
